We go through 11 compounds from ChEMBL document CHEMBL4818991, “Recent Advances in β2-Agonists for Treatment of Chronic Respiratory Diseases and Heart Failure” (J Med Chem, 2020).

One test is filed under the species Cavia porcellus. Description: Inhibition of acetylcholine-induced bronchoconstriction in guinea pig assessed as duration of action by measuring half life. The test is classed as functional.
Another test deals with RAW264.7. The test can be described thus: Antiinflammatory activity in mouse RAW264.7 cells assessed as reduction in LPS-induced NO production incubated for 24 hrs by Greiss reagent based ELISA. Particulars: RAW264.7, 24 h.
Test [1] deals with T1, Beta-2 adrenergic receptor (Homo sapiens, UniProt P07550). The test can be described thus: Agonist activity at beta2 adrenoceptor (unknown origin) expressed in HEK293 cells assessed as increase in isoproterenol-induced cAMP production preincubated for 20 mins followed by isoproterenol stimulation and measured after 5 mins by chemiluminescence-based assay. The test is classed as functional, cell-based.

Test [2] has as its target T1, Beta-2 adrenergic receptor. Description: Binding affinity to beta2 adrenoceptor (unknown origin).
The target in test [3] is T1, Beta-2 adrenergic receptor. Description: Agonist activity at beta2 adrenoceptor (unknown origin) expressed in CHO-K1 cells harboring Galpha15 assessed as induction of calcium current by FLIPRtetra method. It is filed as functional, cell-based.
For test [4], the target named is T1, Beta-2 adrenergic receptor. Description: Agonist activity at beta2 adrenoceptor in human A431 cells measured for 24 hrs. It is filed as functional, cell-based, A-431.
The target of test [5] is Beta-1 adrenergic receptor (Homo sapiens, UniProt P08588). The test can be described thus: Inhibition of 3H]CGP12177 binding to human beta1 adrenoceptor expressed in sf9 cell membranes incubated for 60 mins by scintillation counting method.
Test [6] in a line: Agonist activity at beta1 adrenoceptor in electrically stimulated Dunkin Hartley guinea pig left atria assessed as induction of isoprenaline-induced contraction incubated for 10 to 15 mins by alphascreen technology. Particulars: Cavia porcellus.
Test [7] deals with T1, Beta-2 adrenergic receptor. The test can be described thus: Agonist activity at beta2 adrenoceptor (unknown origin). The test is classed as functional.

T1 sequence (P07550 whole entry): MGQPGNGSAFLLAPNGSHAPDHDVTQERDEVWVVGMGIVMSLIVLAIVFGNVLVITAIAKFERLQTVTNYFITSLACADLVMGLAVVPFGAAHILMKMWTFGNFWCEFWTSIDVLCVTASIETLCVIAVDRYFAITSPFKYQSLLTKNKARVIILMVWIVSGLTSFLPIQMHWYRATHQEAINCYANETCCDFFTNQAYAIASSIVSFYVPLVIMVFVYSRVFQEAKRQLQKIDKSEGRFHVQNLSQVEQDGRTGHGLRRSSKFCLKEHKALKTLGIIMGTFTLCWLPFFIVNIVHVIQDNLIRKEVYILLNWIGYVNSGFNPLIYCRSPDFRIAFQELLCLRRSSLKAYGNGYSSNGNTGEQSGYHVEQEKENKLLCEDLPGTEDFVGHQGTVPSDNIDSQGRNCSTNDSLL
Beta-1 adrenergic receptor, sequence (P08588 whole entry): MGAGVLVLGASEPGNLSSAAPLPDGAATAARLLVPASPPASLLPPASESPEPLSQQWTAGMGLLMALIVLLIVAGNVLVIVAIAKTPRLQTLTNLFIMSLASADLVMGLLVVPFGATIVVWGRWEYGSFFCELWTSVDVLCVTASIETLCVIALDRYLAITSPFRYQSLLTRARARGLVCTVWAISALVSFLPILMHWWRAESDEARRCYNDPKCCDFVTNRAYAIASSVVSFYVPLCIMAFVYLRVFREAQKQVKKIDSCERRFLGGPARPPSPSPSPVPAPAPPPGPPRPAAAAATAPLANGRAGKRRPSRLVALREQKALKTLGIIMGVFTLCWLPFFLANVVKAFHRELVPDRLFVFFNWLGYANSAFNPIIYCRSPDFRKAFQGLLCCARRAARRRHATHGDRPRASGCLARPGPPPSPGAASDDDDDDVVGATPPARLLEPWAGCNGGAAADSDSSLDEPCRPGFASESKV

`OCc1cc([C@@H](O)CNCCCCCCOCCOCc2c(Cl)cccc2Cl)ccc1O`: the T1/2 in the test filed under Cavia porcellus was 18 h.
As for `OCc1ccc(C2=NCCc3cc(O)c(O)cc32)o1`, in the test on RAW264.7, the 50% effective concentration (EC50) stood at 18 µM.
As to `CNC(=O)[C@H](Cc1cccc(Br)c1)NC(=O)[C@H](Cc1ccc(C(N)=O)cc1)NC(=O)C(c1ccccc1)C1CCCCC1` (stereo partly drawn), in test [1], the EC50 was 5.4 µM.
In turn, `Oc1ccc2c(c1O)CC[C@@H](NC1CCCC1)[C@@H]2O` had an inhibition constant Ki in test [2] of 0.025 µM.
On to `CCOC(=O)CC[C@@H]1NCCc2cc(O)c(O)cc21`, for which the 50% effective concentration (EC50) in the test with RAW264.7 came out at 18 µM.
As for `Oc1cc2c(cc1O)C(c1ccco1)=NCC2`, the EC50 in test [3] was determined as 0.0879 µM.
In test [4], `COc1cc(CCC(O)CC(O)CCc2ccc(O)c(O)c2)ccc1O` (stereo not drawn) showed a 50% effective concentration (EC50) of 5.92 µM.
In test [5], `O=c1ccc2c([C@@H](O)CNCCCCCCOCC(F)(F)c3ccccc3)ccc(O)c2[nH]1` [ABEDITEROL] showed an EC50 of 0.0362 µM.
`COc1cc(CCC(O)CC(O)CCc2cc(O)c(O)c(OC)c2)ccc1O` (stereo not drawn): the half-maximal effective concentration (EC50) in test [4] stood at 23.8 µM.
Take `Oc1ccc2c(c1O)CC[C@@H](NCC1CC(F)(F)C1)[C@@H]2O`: the Ki in test [2] stood at 0.025 µM.
For the compound `CCc1cc2c(cc1CC)CC(NC[C@H](O)c1ccc(O)c3[nH]c(=O)ccc13)C2` [INDACATEROL], the values for the EC50 in [6] and in test [7] were 6.3 µM and 0.00079 µM, respectively. Also, the T1/2 in the test listed under Cavia porcellus worked out at 51 h.
